One series concerns the target Cytochrome P450 3A4 (Homo sapiens, UniProt P08684). Conditions: bti-tn-5b1-4. Note: in other assays of this panel Not Active means under 50% inhibition at 10 µM.
The target in a further series is T1, Estrogen receptor (Homo sapiens, UniProt P03372). Note: in other assays of this panel Not Active means under 50% inhibition at 10 µM.
T1 sequence (P03372 whole entry): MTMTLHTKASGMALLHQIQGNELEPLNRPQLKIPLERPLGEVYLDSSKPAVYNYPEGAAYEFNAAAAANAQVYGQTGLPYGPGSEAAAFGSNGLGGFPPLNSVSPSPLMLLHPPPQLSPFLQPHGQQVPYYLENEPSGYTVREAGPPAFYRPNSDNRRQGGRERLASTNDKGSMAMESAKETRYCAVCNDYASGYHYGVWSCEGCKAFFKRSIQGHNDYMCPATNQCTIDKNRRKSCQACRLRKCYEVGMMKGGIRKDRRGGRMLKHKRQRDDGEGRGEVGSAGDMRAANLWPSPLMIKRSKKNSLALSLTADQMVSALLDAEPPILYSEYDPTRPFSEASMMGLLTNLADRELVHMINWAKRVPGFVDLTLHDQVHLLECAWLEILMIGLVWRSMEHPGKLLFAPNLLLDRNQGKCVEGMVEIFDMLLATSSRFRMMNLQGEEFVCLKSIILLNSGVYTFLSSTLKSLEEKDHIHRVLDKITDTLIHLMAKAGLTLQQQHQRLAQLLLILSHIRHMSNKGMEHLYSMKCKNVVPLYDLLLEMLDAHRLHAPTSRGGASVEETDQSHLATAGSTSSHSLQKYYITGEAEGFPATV
As to conditions: sf9.

The target in another series is Nitric oxide synthase 1 (Rattus norvegicus, UniProt P29476). The class given is tissue-based, Cerebellum. Note: in other assays of this panel Not Active means under 50% inhibition at 10 µM.
The target in series [1] is C-C chemokine receptor type 5 (Homo sapiens, UniProt P51681). The format is cell membranes, HEK293, Membrane. As to conditions: hek293. Note: in other assays of this panel Not Active means under 50% inhibition at 10 µM.
Series [2] concerns the target Vascular endothelial growth factor receptor 1 (Homo sapiens, UniProt P17948). The class given is cell-based. As to conditions: huvec. Note: in other assays of this panel Not Active means under 50% inhibition at 10 µM.
The target in series [3] is T2, Muscarinic acetylcholine receptor M5 (Homo sapiens, UniProt P08912). Note: in other assays of this panel Not Active means under 50% inhibition at 10 µM.
T2 sequence (P08912 whole entry): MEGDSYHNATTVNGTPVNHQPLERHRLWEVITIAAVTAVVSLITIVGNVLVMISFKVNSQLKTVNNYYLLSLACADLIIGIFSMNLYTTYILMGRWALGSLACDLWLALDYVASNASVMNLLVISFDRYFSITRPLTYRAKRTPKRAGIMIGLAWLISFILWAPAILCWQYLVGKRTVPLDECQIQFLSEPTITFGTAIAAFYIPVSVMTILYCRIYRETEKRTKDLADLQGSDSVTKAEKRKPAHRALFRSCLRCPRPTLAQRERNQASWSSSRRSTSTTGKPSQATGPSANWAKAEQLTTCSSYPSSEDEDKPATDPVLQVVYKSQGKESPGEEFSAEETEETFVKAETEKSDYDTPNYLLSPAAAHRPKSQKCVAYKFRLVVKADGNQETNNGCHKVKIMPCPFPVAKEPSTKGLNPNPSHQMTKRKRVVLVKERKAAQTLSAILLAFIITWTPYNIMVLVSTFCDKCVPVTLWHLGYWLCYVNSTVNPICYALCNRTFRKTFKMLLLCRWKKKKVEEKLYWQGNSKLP
The format is cell membranes, CHO-K1, Membrane. As to conditions: cho-k1.

Series [4] can be described thus: DRUGMATRIX: Serotonin (5-Hydroxytryptamine) 5-HT3 radioligand binding (ligand: [3H] GR-65630). The class given is cell membranes, Membrane. As to conditions: hek293, Not Active = under 50% inhibition at 10 µM.

Vascular endothelial growth factor receptor 1, sequence (P17948 whole entry): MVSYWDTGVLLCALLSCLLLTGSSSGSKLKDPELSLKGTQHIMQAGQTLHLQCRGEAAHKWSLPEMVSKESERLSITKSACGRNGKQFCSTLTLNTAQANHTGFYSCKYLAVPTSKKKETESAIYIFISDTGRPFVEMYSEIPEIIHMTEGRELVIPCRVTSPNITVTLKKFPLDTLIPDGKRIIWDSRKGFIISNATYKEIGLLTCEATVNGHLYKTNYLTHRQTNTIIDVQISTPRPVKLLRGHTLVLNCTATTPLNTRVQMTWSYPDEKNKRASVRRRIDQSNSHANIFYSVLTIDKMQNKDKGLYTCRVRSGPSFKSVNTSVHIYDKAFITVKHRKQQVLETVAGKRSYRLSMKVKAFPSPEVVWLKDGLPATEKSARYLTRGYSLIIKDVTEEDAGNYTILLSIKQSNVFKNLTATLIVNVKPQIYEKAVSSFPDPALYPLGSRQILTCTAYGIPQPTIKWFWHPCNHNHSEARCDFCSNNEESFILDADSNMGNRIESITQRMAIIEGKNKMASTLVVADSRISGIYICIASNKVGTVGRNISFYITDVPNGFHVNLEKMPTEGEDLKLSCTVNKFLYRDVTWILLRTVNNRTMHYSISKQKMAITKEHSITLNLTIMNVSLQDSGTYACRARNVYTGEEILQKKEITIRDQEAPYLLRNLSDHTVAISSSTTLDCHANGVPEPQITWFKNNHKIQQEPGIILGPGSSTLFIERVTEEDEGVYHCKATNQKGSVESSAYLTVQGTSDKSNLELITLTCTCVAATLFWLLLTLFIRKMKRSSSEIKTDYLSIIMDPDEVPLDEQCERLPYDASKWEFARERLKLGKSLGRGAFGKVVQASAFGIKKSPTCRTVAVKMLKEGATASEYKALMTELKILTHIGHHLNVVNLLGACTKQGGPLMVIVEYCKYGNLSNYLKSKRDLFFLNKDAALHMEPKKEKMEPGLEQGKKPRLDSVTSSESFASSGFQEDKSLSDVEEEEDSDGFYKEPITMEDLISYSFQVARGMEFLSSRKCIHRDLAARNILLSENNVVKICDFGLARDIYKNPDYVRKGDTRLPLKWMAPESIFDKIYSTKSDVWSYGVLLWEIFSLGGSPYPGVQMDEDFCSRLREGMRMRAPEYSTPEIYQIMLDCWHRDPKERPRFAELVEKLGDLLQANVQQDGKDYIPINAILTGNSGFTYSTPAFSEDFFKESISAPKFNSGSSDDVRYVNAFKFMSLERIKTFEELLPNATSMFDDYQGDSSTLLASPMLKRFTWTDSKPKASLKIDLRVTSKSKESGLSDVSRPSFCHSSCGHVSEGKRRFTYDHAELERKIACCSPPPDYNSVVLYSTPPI
Cytochrome P450 3A4, sequence (P08684 whole entry): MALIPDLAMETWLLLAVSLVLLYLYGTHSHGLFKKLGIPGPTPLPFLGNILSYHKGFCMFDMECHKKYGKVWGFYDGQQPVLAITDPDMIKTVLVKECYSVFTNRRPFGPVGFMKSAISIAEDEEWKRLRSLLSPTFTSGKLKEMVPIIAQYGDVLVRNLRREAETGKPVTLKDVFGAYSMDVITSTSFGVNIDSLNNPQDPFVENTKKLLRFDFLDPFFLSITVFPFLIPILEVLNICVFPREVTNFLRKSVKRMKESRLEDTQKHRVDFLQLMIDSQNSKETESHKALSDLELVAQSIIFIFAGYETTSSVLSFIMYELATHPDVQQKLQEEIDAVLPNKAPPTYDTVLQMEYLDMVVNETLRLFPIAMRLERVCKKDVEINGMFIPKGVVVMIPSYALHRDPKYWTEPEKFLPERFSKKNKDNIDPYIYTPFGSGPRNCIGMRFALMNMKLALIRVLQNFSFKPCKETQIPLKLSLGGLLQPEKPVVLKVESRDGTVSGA
C-C chemokine receptor type 5, sequence (P51681 whole entry): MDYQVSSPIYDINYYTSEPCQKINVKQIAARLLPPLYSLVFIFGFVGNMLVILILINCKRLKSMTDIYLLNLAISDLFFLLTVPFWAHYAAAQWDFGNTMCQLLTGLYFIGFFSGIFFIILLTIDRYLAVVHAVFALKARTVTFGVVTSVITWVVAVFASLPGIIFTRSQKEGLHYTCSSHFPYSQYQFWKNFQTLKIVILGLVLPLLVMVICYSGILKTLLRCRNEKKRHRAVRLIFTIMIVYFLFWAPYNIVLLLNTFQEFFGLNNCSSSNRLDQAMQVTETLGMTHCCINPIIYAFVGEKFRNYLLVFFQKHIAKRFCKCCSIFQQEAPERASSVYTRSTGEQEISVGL
Nitric oxide synthase 1, sequence (P29476 whole entry): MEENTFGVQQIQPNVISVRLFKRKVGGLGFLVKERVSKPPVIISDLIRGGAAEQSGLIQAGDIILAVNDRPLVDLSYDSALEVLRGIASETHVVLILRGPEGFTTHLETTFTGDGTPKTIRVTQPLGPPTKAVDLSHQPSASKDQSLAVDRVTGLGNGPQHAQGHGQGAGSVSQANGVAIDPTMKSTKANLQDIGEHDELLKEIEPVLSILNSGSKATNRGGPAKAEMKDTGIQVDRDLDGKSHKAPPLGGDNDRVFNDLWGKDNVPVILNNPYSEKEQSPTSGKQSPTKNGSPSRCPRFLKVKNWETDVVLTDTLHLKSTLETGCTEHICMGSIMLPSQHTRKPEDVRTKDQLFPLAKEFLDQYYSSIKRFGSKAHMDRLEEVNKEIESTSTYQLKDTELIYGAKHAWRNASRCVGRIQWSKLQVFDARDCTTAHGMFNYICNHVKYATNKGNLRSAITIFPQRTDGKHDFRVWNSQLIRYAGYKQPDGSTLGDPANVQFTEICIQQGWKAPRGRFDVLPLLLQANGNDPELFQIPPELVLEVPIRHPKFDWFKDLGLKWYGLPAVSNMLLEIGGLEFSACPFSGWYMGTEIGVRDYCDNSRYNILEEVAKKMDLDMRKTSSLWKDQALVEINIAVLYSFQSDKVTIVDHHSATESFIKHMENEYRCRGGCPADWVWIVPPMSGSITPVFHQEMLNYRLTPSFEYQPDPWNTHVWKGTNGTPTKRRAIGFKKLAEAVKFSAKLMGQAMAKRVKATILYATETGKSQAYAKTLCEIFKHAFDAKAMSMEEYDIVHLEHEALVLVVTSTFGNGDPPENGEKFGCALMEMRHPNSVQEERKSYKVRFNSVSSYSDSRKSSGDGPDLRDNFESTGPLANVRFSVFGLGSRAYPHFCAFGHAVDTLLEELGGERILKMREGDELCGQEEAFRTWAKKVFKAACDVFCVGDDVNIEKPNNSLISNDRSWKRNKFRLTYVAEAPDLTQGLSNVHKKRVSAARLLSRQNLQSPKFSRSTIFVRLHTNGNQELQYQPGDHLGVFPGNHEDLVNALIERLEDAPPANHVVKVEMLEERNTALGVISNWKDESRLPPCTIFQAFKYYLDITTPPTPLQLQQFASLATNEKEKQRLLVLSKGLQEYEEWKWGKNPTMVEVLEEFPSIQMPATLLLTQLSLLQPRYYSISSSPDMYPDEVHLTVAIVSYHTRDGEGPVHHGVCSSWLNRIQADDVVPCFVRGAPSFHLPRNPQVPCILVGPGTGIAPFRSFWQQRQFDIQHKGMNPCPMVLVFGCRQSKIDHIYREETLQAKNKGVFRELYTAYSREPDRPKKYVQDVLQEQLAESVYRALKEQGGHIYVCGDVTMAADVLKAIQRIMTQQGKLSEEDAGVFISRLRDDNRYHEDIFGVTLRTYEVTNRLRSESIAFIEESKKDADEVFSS

Consider `COc1ccc2[nH]c([S+]([O-])Cc3ncc(C)c(OC)c3C)nc2c1` (stereo not drawn) [OMEPRAZOLE], for which the IC50 result (against Cytochrome P450 3A4; against Estrogen receptor; on Nitric oxide synthase 1; in series [1]; in series [2]; in series [3]) was “Not Active” throughout. In series [4], the IC50 (in general, the point on the concentration scale where inhibition reaches its midpoint) is recorded as “Not Active”. Also, the Ki result (on Cytochrome P450 3A4; in series [4]) was “Not Active” throughout.
Regarding `Cc1nccn1CC1CCc2c(c3ccccc3n2C)C1=O` (stereo not drawn) [ONDANSETRON], the IC50 entry (on Cytochrome P450 3A4; on Estrogen receptor; at Nitric oxide synthase 1; in series [1]; in series [2]; in series [3]) was “Not Active” in each case. Besides, the concentration for half-maximal inhibition (IC50) in series [4] (read-out: IC50) is 9.29 nM. Besides, the results for the inhibitory constant (Ki) result (at Cytochrome P450 3A4; in series [4] (read-out: Ki)) were “Not Active” and 2.09 nM, respectively.
Consider `CCCCOc1ccc(OCCCN2CCOCC2)cc1` [PRAMOXINE], for which the IC50 entry (at Cytochrome P450 3A4; at Estrogen receptor; against Nitric oxide synthase 1; in series [1]; in series [2]; in series [3]) was “Not Active” in each case. Besides, the IC50 entry in series [4] was “Not Active”. In addition, the Ki entry (at Cytochrome P450 3A4; in series [4]) was “Not Active” throughout.
`NC(=O)c1cnccn1` [PYRAZINAMIDE]: the half-inhibitory concentration (IC50) entry (against Cytochrome P450 3A4; against Estrogen receptor; against Nitric oxide synthase 1; in series [1]; in series [2]; in series [3]) was “Not Active” in each case. Besides, the IC50 result in series [4] is recorded as “Not Active”. For the same compound, the Ki result (on Cytochrome P450 3A4; in series [4]) was “Not Active” throughout.
In the case of `Cc1cc2cc3c(C)cc(=O)oc3c(C)c2o1` [TRIOXSALEN], the IC50 entry (on Cytochrome P450 3A4; against Estrogen receptor; at Nitric oxide synthase 1; in series [1]; in series [2]; in series [3]) was “Not Active” each time. The IC50 result in series [4] is reported as “Not Active”. For the same compound, the Ki entry (on Cytochrome P450 3A4; in series [4]) was “Not Active” throughout.
With `CCCC(CCC)C(=O)O` [VALPROIC ACID], the IC50 result (on Cytochrome P450 3A4; against Estrogen receptor; against Nitric oxide synthase 1; in series [1]; in series [2]; in series [3]) was “Not Active” in each case. In addition, the IC50 entry in series [4] is listed as “Not Active”. For the same compound, the inhibition constant Ki result (on Cytochrome P450 3A4; in series [4]) was “Not Active” throughout.
Regarding CADMIUM DICHLORIDE, the IC50 result (against Cytochrome P450 3A4; at Estrogen receptor; against Nitric oxide synthase 1; in series [1]; in series [2]; in series [3]) was “Not Active” in each case. The IC50 entry in series [4] was “Not Active”. Besides, the inhibition constant (Ki) result (at Cytochrome P450 3A4; on Estrogen receptor; at Nitric oxide synthase 1; in series [1]; in series [2]; in series [3]) was “Not Active” throughout. In series [4], the inhibitory constant (Ki) (commonly the equilibrium dissociation constant of an inhibitor or competing ligand from its target) was “Not Active”.

For the origin of these results see ChEMBL document CHEMBL1909046, “DrugMatrix in vitro pharmacology data”.
